Laboratory results from US20240409890A1, “UFMYLATION INHIBITION TO TARGET TAUOPATHY IN HUMAN NEURONS” (priority 2023, published 2024).

Tests used:
Assay type in all cases: cell-based, human
[1] = test system: hM4Di-expressing 4R-P301S neurons; assay: Calcium imaging of acute neuronal silencing by CNO; settings: upon addition of CNO
Method: 4R-P301S-HaloTag iPSCs were differentiated into neurons on coverslips as described. Neurons were transduced with hSyn-jGCaMP8f lentivirus on D6. This lentiviral construct was made using the 3rd generation lentiviral plasmid FUGW (Addgene, 14883), where the PacI+EcoRI fragment was replaced by the hSyn-GCaMP8f fragment (Zhang et al., 2023). pGP-AAV-hSyn-jGCaMP8f-WPRE was a gift from GENIE Project (Addgene, 162376). The medium was changed on D7, and neurons were seeded with […] K18-tau fibrils. Neurons were maintained as described until imaging at 4 and 5 weeks old. On the day of imaging, JFX-549 HaloTag ligand (HHMI Janelia) was diluted into fresh maturation medium to […], and one-fifth of neuronal medium was replaced with diluted ligand (200 nM final ligand concentration). Cells were incubated at 37° C. for 15 minutes. An equal volume of medium was replaced with half-fresh medium, and half-conditioned medium from a control well. […] Fluorescence time-lapse images were collected on a Nikon FN1 microscope using a 60×, 1.0 NA objective (CFI APO 60XW NIR, Nikon) and a C-FL GFP filter cube. […]
4R-P301S-HaloTag iPSCs were differentiated into neurons on coverslips as described. […] For MC1 quantification, stained neurons were imaged with a fluorescence microscope (Keyence BZ-X710). […] Neurons were perfused with 10 μM CNO at 60 seconds and calcium traces in one field were recorded for 400 seconds.

[2] = test system: hM4Di-expressing K18-seeded 4R-P301S-HaloTag neurons; assay: DREADDs chronic neuronal silencing, MC1 tau inclusions; settings: CNO weekly for 2 weeks starting one week after K18 seeding
Method: 4R-P301S-HaloTag iPSCs were differentiated into neurons on coverslips as described. Neurons were transduced with hSyn-hM4Di-mCherry lentivirus on D6. This lentiviral construct was made using the 3rd generation lentiviral plasmid FUGW (Addgene, 14883), where the PacI+EcoRI fragment was replaced by hSyn-hM4D(Gi)-mCherry. pAAV-hSyn-hM4D(Gi)-mCherry was a gift from Bryan Roth (Addgene, 50475; http://n2t.net/addgene). The medium was changed on D7, and neurons were seeded with […] K18-tau fibrils. Neurons were maintained as described. Beginning at D14, clozapine-N-oxide (CNO; Tocris) was included in weekly media changes for a final concentration of […]. Neurons were fixed and stained with MC1 on D29. For MC1 quantification, stained neurons were imaged with a fluorescence microscope (Keyence BZ-X710). A 20× objective was used to acquire a series of 10 Z-stack images per coverslip. To validate the neuronal silencing effect of CNO by calcium imaging, 4R-P301S neurons were differentiated and transduced with hSyn-hM4Di-mCherry and hSyn-GCaMP8f lentivirus on D6. At D36, JFX-549 was added to neurons and prepared for imaging as described above. Exposure time was set to 20 milliseconds. Neurons were perfused with 10 μM CNO at 60 seconds and calcium traces in one field were recorded for 400 seconds.

[3] = test system: tau inclusion in K18-seeded 4R-P301S neurons; assay: UBA5 inhibitor treatment, flow cytometry of MC1+ tau inclusions; settings: for tau inclusion induced by K18 seeding (MC1+/DAPI+ neurons) compared with control treatment group: treated Day 5, 3.0 ug/mL K18 Day 7, FACS Day 21
Method: Pre-differentiation of human iPSCs into neurons was initiated by plating 1.5×10^6 iPSCs in one well Matrigel-coated 6-well plates with Knockout DMEM/F-12 media containing doxycycline ([…]), N2 supplement, non-essential amino acids, brain-derived neurotrophic factor (10 ng/mL, Peprotech), neurotrophin-3 (10 ng/mL, PeproTech) and ROCK inhibitor (Y-27632, Cayman chemicals). The media was replaced the next day without ROCK inhibitor, and pre-differentiation was maintained for a total of three days. On day 0, the pre-differentiated precursor cells were dissociated with Accutase and re-plated generally onto Laminin-coated coverslips (Neuvitro) at 1.5×10^5 cells/coverslip or 12-well tissue culture plates (Corning) at 3.8×10^5 cells/well for the growth of neuronal cultures in Neurobasal Plus media containing B27 supplement, Glutamax, BDNF (10 ng/mL) and NT3 (10 ng/mL) with doxycycline (2 μg/mL). Half of the medium was replaced on day 3, as well as on day 7 with the removal of doxycycline from the fresh media. The medium volume was doubled on day 21. Thereafter, one-half of the medium was replaced with fresh medium weekly until the cells were collected. All human iPS cell lines used in this work have been regularly tested for mycoplasma (Lonza) and karyotyped (MSK Molecular Cytogenetics Core).
Myc-tagged K18-P301L Tau was expressed and purified as previously described2. Briefly, protein expression was induced in Terrific Broth containing the chemical chaperone betaine (10 mM) and IPTG (500 uM) for 3 hrs at 30° C. Tau was purified via the following major steps: mechanical lysis, boiling, centrifugation, and cation exchange. Purified Tau fractions were dialyzed into aggregation assay buffer (PBS pH 7.4, 2 mM DTT). To minimize potential endotoxin contamination, purified tau was incubated with poly(epsilon-lysine) conjugated resin (Pierce), then tested post-treatment for endotoxin levels using the ToxinSensor™ Chromogenic LAL Endotoxin Assay Kit (Genscript). […] The concentration of aggregated tau was quantified by Pierce BCA assay. […]

[4] = test system: 4R-P301S iPSC-derived neurons; assay: Toxic effect of UBA5 inhibitor on iPSC-derived neurons; settings: 5 uM, 10 uM and 20 uM (data not shown)
Method: 4R-P301S iPSCs were seeded at the density of 1.2×10^7 per plate in 10-cm plates in pre-differentiation medium. On day 0, pre-differentiated neurons were replated at the density of 4×10^5 per well in poly-D-lysine (PDL) pre-coated 12-well plates (Corning) in maturation medium. On day 5, iPSCs differentiated neurons were treated with three UBA5 inhibitors separately ay various concentrations. On day 7, iPSCs differentiated neurons were treated with […] K18 fibrils for 2 weeks. On day 21, neurons in 12-well plates were collected for flow cytometry analysis.

Row | SMILES | neuronal activities (calcium imaging) [1] | levels of Tau inclusions (MC1+ aggregates) compared with vehicle treatment [2] | tau inclusion induced by K18 seeding (MC1+/DAPI+ neurons) compared with control treatment group ([3]; 0.1 uM) | tau inclusion induced by K18 seeding (MC1+/DAPI+ neurons) compared with control treatment group ([3]; 1 uM) | percentage of MC1+ cells (tau inclusion induced by K18 treatment) ([3]; D21(7+14), 3 μg/ml K18-seeded 4R-P301S neurons pre-treated at various concentrations, FIG. 15 legend) | toxic effect on neurons [4]
1 | C[N+]1([O-])CCN(C2=Nc3cc(Cl)ccc3Nc3ccccc32)CC1 [CNO, clozapine-N-oxide] | silenced | significantly reduced |  |  |  | 
2 | CC(=O)c1c(O)c(C)c(O)c2c1OC1=CC(=O)/C(=C(/C)N)C(=O)[C@@]12C [Usenamine A, (2E,9bR)-6-acetyl-2-(1-aminoethylidene)-7,9-dihydroxy-8,9b-dimethyldibenzouran-1,3-dione] |  |  | failed to prevent tau inclusion | successfully prevented tau inclusion | prevented the tau inclusion | exerted toxic effect on neurons
